Experimental data from patent publication US20180360953A1 (priority 2015, published 2018).

Test system: PA-specific Ab responses
Parameters: species or system mice
Conditions: mouse, in vivo, ip

SMILES: Cc1c(-c2ccnn2C)cc(C(=O)NCc2ccc(S(C)(=O)=O)cn2)c(=O)n1-c1cccc(C(F)(F)F)c1 [Alvelestat, alvelestat]
- High affinity PA-specific serum IgG1 and IgA Ab responses: promotes high affinity Abs
